ChEMBL document CHEMBL3526111, “In vitro hepatotoxicity and cytochrome P450 induction and inhibition characteristics of carnosic acid, a dietary supplement with antiadipogenic properties” (Drug Metab Dispos, 2012)

Tests used:
Cytochrome P450 3A4 = Cytochrome P450 3A4 (Homo sapiens, UniProt P08684); assay: Inhibition of CYP3A4 activity in human hepatocytes after 30 mins by liquid chromatography/tandem mass spectroscopy; format: ADME, cell-based, Hepatocyte
Hepatocyte [1] = assay: Cytotoxicity against human hepatocytes assessed as loss of nuclei after 24 hrs at 50 to 100 uM; format: cell-based
Hepatocyte [2] = assay: Cytotoxicity against human hepatocytes assessed as cytoplasm granulation with vacuoles after 24 hrs at 50 to 100 uM; format: cell-based
[3] = Cytotoxicity against human hepatocytes assessed as cell viability after 24 hrs at 100 uM by ATP detection based assay; set-up: species or system Hepatocyte; settings: read-out: Activity
Hepatocyte [4] = assay: Cytotoxicity against human hepatocytes assessed as reduction in cell viability after 4 hrs by ATP detection based assay
Hepatocyte [5] = assay: Cytotoxicity against human hepatocytes assessed as reduction in cell viability after 24 hrs by ATP detection based assay
Hepatocyte [6] = assay: Cytotoxicity against human hepatocytes assessed as reduction in cell viability after 24 hrs by LDH release assay; format: cell-based
Hepatocyte [7] = assay: Induction of apoptosis in human hepatocytes assessed as caspase 3/7 activation by caspase-Glo 3/7 assay; format: cell-based
CYP3A4 [8] = assay: Induction of CYP3A4 mRNA expression in human hepatocytes at 10 uM after 48 hrs relative to untreated control; format: ADME, cell-based, Hepatocyte; settings: read-out: FC
CYP2B6 [9] = assay: Induction of CYP2B6 mRNA expression in human hepatocytes at 10 uM after 48 hrs relative to untreated control; format: ADME, cell-based, Hepatocyte; settings: read-out: FC
SULT2A1 = assay: Induction of SULT2A1 mRNA expression in human hepatocytes at 10 uM after 48 hrs relative to untreated control; format: cell-based, Hepatocyte; settings: read-out: FC
CYP1A2 = molecular target: T1, CYP1A2 (Homo sapiens, UniProt P05177); assay: Time dependent inhibition of CYP1A2 activity in human hepatocytes after 30 mins by liquid chromatography/tandem mass spectroscopy; format: ADME, cell-based, Hepatocyte
T1 sequence (P05177 whole entry): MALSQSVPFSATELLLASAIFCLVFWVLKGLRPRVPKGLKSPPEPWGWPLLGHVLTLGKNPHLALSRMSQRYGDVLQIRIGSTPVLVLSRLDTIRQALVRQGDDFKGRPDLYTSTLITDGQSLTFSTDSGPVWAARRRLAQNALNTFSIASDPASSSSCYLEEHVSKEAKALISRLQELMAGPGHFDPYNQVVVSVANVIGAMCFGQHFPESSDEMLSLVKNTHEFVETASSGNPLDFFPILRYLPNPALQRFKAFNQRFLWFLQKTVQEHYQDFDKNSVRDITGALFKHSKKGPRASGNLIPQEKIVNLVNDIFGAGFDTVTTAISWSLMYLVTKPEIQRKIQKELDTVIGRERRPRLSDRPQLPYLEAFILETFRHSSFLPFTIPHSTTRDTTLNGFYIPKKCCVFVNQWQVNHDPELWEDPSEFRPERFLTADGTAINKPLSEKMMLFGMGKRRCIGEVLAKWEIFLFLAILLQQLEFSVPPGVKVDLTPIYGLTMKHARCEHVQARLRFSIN

CYP2B6 [10] = molecular target: T2, CYP2B6 (Homo sapiens, UniProt P20813); assay: Time dependent inhibition of CYP2B6 activity in human hepatocytes after 30 mins by liquid chromatography/tandem mass spectroscopy; format: ADME, cell-based, Hepatocyte
T2 sequence (P20813 whole entry): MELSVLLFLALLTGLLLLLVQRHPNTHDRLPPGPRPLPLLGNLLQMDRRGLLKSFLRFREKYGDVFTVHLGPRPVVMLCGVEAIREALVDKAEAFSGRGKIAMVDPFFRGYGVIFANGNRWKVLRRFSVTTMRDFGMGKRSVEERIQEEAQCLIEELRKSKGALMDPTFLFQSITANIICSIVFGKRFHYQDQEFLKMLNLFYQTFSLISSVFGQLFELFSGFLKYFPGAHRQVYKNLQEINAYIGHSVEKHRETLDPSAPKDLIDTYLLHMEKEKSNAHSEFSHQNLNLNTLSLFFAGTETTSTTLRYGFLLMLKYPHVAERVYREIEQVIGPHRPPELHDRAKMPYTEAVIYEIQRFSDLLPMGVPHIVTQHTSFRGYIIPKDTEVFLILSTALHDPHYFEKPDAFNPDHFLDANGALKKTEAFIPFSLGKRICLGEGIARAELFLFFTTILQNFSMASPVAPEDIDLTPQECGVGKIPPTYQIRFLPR

CYP2C8 = molecular target: T3, CYP2C8 (Homo sapiens, UniProt P10632); assay: Time dependent inhibition of CYP2C8 activity in human hepatocytes after 30 mins by liquid chromatography/tandem mass spectroscopy; format: ADME, cell-based, Hepatocyte
T3 sequence (P10632 whole entry): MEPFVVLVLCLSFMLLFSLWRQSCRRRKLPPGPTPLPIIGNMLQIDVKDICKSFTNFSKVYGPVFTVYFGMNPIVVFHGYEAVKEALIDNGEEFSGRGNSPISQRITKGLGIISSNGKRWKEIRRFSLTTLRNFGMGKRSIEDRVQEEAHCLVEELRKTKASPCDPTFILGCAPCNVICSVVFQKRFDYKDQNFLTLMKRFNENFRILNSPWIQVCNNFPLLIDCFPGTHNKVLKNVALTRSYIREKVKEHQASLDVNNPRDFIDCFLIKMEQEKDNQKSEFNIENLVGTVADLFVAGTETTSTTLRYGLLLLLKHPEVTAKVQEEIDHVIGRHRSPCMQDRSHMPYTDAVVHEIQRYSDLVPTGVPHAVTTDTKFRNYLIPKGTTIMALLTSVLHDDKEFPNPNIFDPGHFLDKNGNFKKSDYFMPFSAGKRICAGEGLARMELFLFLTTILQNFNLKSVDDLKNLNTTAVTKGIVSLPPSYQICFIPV

CYP2C9 = CYP2C9 (Homo sapiens, UniProt P11712); assay: Time dependent inhibition of CYP2C9 activity in human hepatocytes after 30 mins by liquid chromatography/tandem mass spectroscopy; format: ADME, cell-based, Hepatocyte
Sequence of CYP2C9 (P11712 whole entry): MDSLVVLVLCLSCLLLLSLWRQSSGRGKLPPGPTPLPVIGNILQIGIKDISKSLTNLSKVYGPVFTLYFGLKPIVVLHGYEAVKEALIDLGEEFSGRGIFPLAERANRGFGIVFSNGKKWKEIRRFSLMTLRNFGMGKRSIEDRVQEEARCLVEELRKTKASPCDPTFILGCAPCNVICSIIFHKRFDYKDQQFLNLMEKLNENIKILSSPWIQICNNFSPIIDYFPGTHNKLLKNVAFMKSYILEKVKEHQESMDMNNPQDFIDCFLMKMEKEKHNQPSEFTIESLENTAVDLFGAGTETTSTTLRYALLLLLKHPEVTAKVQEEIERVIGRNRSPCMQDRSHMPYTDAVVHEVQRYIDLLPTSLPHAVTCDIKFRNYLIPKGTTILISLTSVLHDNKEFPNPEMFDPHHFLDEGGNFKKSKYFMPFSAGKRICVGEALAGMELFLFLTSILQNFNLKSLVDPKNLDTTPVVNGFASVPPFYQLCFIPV

CYP2C19 = CYP2C19 (Homo sapiens, UniProt P33261); assay: Time dependent inhibition of CYP2C19 activity in human hepatocytes after 30 mins by liquid chromatography/tandem mass spectroscopy; format: ADME, cell-based, Hepatocyte
Sequence of CYP2C19 (P33261 whole entry): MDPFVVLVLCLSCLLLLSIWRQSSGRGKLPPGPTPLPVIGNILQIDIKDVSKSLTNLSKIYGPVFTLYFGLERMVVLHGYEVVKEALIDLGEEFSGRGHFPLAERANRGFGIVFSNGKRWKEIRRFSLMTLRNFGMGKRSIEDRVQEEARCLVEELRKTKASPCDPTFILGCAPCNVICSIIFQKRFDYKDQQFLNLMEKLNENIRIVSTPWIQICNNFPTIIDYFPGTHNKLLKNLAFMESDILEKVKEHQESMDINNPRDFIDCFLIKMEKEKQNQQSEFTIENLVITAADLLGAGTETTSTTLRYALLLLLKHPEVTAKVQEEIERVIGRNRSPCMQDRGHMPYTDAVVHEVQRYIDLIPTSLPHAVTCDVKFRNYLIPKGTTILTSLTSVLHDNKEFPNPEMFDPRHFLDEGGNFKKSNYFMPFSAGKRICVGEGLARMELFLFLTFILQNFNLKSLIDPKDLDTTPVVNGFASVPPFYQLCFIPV

CYP2D6 = CYP2D6 (Homo sapiens, UniProt P10635); assay: Time dependent inhibition of CYP2D6 activity in human hepatocytes after 30 mins by liquid chromatography/tandem mass spectroscopy; format: ADME, cell-based, Hepatocyte
Sequence of CYP2D6 (P10635 whole entry): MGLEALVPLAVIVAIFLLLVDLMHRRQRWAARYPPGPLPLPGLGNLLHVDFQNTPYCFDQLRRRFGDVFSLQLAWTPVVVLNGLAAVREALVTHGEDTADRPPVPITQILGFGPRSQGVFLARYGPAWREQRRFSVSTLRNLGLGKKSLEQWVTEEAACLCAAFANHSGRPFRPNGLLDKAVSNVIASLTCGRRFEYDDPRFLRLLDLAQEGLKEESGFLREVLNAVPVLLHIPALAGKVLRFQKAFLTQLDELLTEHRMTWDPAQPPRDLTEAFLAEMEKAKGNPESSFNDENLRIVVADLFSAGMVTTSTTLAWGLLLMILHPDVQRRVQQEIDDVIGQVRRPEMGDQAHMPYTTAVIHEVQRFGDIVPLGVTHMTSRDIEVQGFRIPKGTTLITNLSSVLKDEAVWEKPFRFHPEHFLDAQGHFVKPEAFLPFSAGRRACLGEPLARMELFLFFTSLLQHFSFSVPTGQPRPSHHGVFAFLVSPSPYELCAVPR

CYP2E1 = CYP2E1 (Homo sapiens, UniProt P05181); assay: Time dependent inhibition of CYP2E1 activity in human hepatocytes after 30 mins by liquid chromatography/tandem mass spectroscopy; format: ADME, cell-based, Hepatocyte
Sequence of CYP2E1 (P05181 whole entry): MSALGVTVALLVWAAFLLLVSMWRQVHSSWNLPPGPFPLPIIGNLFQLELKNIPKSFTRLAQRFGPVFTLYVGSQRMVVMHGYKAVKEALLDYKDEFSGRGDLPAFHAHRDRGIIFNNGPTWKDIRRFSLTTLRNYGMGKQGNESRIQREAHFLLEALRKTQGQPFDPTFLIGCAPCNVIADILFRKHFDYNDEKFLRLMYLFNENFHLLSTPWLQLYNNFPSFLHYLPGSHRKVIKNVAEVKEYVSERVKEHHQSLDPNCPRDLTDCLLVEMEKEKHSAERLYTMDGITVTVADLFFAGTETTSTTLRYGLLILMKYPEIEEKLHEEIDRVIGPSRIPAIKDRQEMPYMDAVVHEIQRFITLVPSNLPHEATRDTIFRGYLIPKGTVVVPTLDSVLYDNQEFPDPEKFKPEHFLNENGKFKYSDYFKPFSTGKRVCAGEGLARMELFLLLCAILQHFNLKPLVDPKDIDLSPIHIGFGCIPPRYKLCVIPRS

CYP3A4 [11] = molecular target: CYP3A4 (Homo sapiens, UniProt P08684); assay: Time dependent inhibition of CYP3A4 activity in human hepatocytes after 30 mins by liquid chromatography/tandem mass spectroscopy; format: ADME, cell-based, Hepatocyte
Sequence of CYP3A4 (Homo sapiens, UniProt P08684) (P08684 whole entry): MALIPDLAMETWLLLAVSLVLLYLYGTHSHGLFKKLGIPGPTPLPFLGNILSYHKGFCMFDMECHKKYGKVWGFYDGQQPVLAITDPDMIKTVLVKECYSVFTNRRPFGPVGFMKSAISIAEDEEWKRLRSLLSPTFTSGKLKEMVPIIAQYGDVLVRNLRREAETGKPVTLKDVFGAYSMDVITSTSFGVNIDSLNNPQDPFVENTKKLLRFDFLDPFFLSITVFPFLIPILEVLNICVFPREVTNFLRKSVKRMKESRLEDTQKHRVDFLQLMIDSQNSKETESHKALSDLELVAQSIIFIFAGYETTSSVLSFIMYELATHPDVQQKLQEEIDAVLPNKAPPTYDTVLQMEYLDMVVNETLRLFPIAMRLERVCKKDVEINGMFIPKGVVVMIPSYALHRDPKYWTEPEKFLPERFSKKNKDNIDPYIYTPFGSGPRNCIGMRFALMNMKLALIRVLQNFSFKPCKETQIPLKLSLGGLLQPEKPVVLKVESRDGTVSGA

Cytochrome P450 2C9 = Cytochrome P450 2C9 (Homo sapiens, UniProt P11712); assay: Inhibition of CYP2C9 activity in human hepatocytes after 30 mins by liquid chromatography/tandem mass spectroscopy; format: ADME, cell-based, Hepatocyte
Sequence of Cytochrome P450 2C9 (P11712 whole entry): as the sequence (P11712 whole entry) above

Hepatocyte [12] = assay: Cytotoxicity against human hepatocytes assessed as reduction in cell viability after 4 hrs by LDH release assay; format: cell-based

Sequence of Cytochrome P450 3A4 (P08684 whole entry): as the sequence (P08684 whole entry) above

With `CC(C)c1cc2c(c(O)c1O)[C@@]1(C(=O)O)CCCC(C)(C)[C@@H]1CC2` [CARNOSIC ACID] the Ki (Cytochrome P450 3A4) was 4.3 µM, the Activity (Hepatocyte [1]) was “Toxic” and the Activity (Hepatocyte [2]) was “Toxic”. For the same compound, the viability at 24 h, 100 µM [3] was under 10%, the EC50 (Hepatocyte [4]) was 95.7 µM and the EC50 (Hepatocyte [5]) was 94.8 µM. For the same compound, the EC50 (Hepatocyte [6]) was “Not Active”, the Activity (Hepatocyte [7]) was “Non-toxic” and the fold induction at 48 h, 10 µM (CYP3A4 [8]) was 13.9. It also gave a fold induction at 48 h, 10 µM (CYP2B6 [9]) of 4.5, a fold induction at 48 h, 10 µM (SULT2A1) of 2.4 and an inhibition at 0.5 h (CYP1A2) of under 11%. The inhibition at 0.5 h (CYP2B6 [10]) was under 11%, the inhibition at 0.5 h (CYP2C8) was under 11% and the inhibition at 0.5 h (CYP2C9) was under 11%. It also gave an inhibition at 0.5 h (CYP2C19) of under 11%, an inhibition at 0.5 h (CYP2D6) of under 11% and an inhibition at 0.5 h (CYP2E1) of under 11%. It also gave an inhibition at 0.5 h (CYP3A4 [11]) of under 11% and a Ki (Cytochrome P450 2C9) of 9.2 µM.
For `CC/C(=C(\c1ccccc1)c1ccc(OCCN(C)C)cc1)c1ccccc1` [TAMOXIFEN], the EC50 (Hepatocyte [4]) was 71.4 µM, the EC50 (Hepatocyte [5]) was 34.4 µM and the EC50 (Hepatocyte [6]) was “Not Active”. The EC50 (Hepatocyte [12]) was 67.6 µM and the Activity (Hepatocyte [7]) was “Toxic”.
